In ChEMBL document CHEMBL3885881, “DrugMatrix”:

Species on record: Rattus norvegicus
Assay: DrugMatrix - Regimen: Daily Repeat
Format: toxicity, organism-based, Sprague-Dawley
Set-up: regimen Daily Repeat, gender Male, age 6-8 weeks
Settings: in vivo, po, route oral GAVAGE, vehicle .5 % CMC; for ABSOLUTE BASOPHIL / ABSOLUTE EOSINOPHIL / ABSOLUTE LYMPHOCYTE / ABSOLUTE MONOCYTE / ABSOLUTE SEGMENTED NEUTROPHIL / BASOPHIL / EOSINOPHIL / ERYTHROCYTE COUNT / HEMATOCRIT / HEMOGLOBIN / LEUKOCYTE COUNT / LYMPHOCYTE / MEAN CORPUSCULAR HEMOGLOBIN / MEAN CORPUSCULAR HEMOGLOBIN CONCENTRATION / MEAN CORPUSCULAR VOLUME / MONOCYTE / NEUTROPHIL / NUCLEATED RED BLOOD CELLS / PLATELET COUNT: tissue Blood; for ALANINE AMINOTRANSFERASE / ALBUMIN / ALKALINE PHOSPHATASE / ASPARTATE AMINOTRANSFERASE / BLOOD UREA NITROGEN / CARBON DIOXIDE / CHLORIDE / CHOLESTEROL / CREATINE PHOSPHOKINASE / CREATININE / GLUCOSE / LACTATE DEHYDROGENASE / LIPASE / PHOSPHORUS / POTASSIUM / SODIUM / TOTAL BILIRUBIN / TOTAL PROTEIN / URIC ACID: tissue Plasma
[1] = 0 mg/kg, 72 h, dose level Control, time 3 day
[2] = 0 mg/kg, 120 h, dose level Control, time 5 day
[3] = 100 mg/kg, 72 h, dose level Low, time 3 day

Structure (SMILES): O=C(O)CCc1nc(-c2ccccc2)c(-c2ccccc2)o1 [OXAPROZIN]
- ABSOLUTE BASOPHIL [1]: 0 CELLS/uL
- ABSOLUTE EOSINOPHIL [1]: 0 CELLS/uL
- ABSOLUTE LYMPHOCYTE [1]: 12269.67 CELLS/uL
- ABSOLUTE MONOCYTE [1]: 160.33 CELLS/uL
- ABSOLUTE SEGMENTED NEUTROPHIL [1]: 970 CELLS/uL
- BASOPHIL [1]: 0%
- EOSINOPHIL [1]: 0%
- ERYTHROCYTE COUNT [1]: 5.76 x10E6/uL
- HEMATOCRIT [1]: 36.57%
- HEMOGLOBIN [1]: 14.22 G/DL
- LEUKOCYTE COUNT [1]: 13.4 x10E3/uL
- LYMPHOCYTE [1]: 91.67%
- MEAN CORPUSCULAR HEMOGLOBIN [1]: 24.67 pg
- MEAN CORPUSCULAR HEMOGLOBIN CONCENTRATION [1]: 38.85 G/DL
- MEAN CORPUSCULAR VOLUME [1]: 63.52 fL
- MONOCYTE [1]: 1.17%
- NEUTROPHIL [1]: 7.17%
- NUCLEATED RED BLOOD CELLS [1]: 0.33 /100WBC
- PLATELET COUNT [1]: 1250.83 x10E3/uL
- ALANINE AMINOTRANSFERASE [1]: 49.17 u/L
- ALBUMIN [1]: 4.33 G/DL
- ALKALINE PHOSPHATASE [1]: 378.5 u/L
- ASPARTATE AMINOTRANSFERASE [1]: 82.17 u/L
- BLOOD UREA NITROGEN [1]: 15 mg/dL
- CARBON DIOXIDE [1]: 34.33 mmol/L
- CHLORIDE [1]: 99.17 MEQ/L
- CHOLESTEROL [1]: 71.17 mg/dL
- CREATINE PHOSPHOKINASE [1]: 258.67 u/L
- CREATININE [1]: 0.18 mg/dL
- GLUCOSE [1]: 142.67 mg/dL
- LACTATE DEHYDROGENASE [1]: 154.33 u/L
- LIPASE [1]: 9 u/L
- PHOSPHORUS [1]: 11.67 mg/dL
- POTASSIUM [1]: 7.13 MEQ/L
- SODIUM [1]: 142.22 MEQ/L
- TOTAL BILIRUBIN [1]: 0.18 mg/dL
- TOTAL PROTEIN [1]: 5.77 G/DL
- URIC ACID [1]: 1.55 mg/dL
- ABSOLUTE BASOPHIL [2]: 0 CELLS/uL
- ABSOLUTE EOSINOPHIL [2]: 23.33 CELLS/uL
- ABSOLUTE LYMPHOCYTE [2]: 14943.67 CELLS/uL
- ABSOLUTE MONOCYTE [2]: 32 CELLS/uL
- ABSOLUTE SEGMENTED NEUTROPHIL [2]: 1084.33 CELLS/uL
- BASOPHIL [2]: 0%
- EOSINOPHIL [2]: 0.17%
- ERYTHROCYTE COUNT [2]: 5.71 x10E6/uL
- HEMATOCRIT [2]: 35.28%
- HEMOGLOBIN [2]: 14.27 G/DL
- LEUKOCYTE COUNT [2]: 16.08 x10E3/uL
- LYMPHOCYTE [2]: 93%
- MEAN CORPUSCULAR HEMOGLOBIN [2]: 25.02 pg
- MEAN CORPUSCULAR HEMOGLOBIN CONCENTRATION [2]: 40.43 G/DL
- MEAN CORPUSCULAR VOLUME [2]: 61.82 fL
- MONOCYTE [2]: 0.17%
- NEUTROPHIL [2]: 6.67%
- NUCLEATED RED BLOOD CELLS [2]: 0.33 /100WBC
- PLATELET COUNT [2]: 1274 x10E3/uL
- ALANINE AMINOTRANSFERASE [2]: 54.17 u/L
- ALBUMIN [2]: 4.22 G/DL
- ALKALINE PHOSPHATASE [2]: 373.17 u/L
- ASPARTATE AMINOTRANSFERASE [2]: 81.83 u/L
- BLOOD UREA NITROGEN [2]: 16.67 mg/dL
- CARBON DIOXIDE [2]: 30.33 mmol/L
- CHLORIDE [2]: 99 MEQ/L
- CHOLESTEROL [2]: 71 mg/dL
- CREATINE PHOSPHOKINASE [2]: 273.5 u/L
- CREATININE [2]: 0.22 mg/dL
- GLUCOSE [2]: 141.83 mg/dL
- LACTATE DEHYDROGENASE [2]: 153.67 u/L
- LIPASE [2]: 10.33 u/L
- PHOSPHORUS [2]: 11.38 mg/dL
- POTASSIUM [2]: 7.08 MEQ/L
- SODIUM [2]: 142.75 MEQ/L
- TOTAL BILIRUBIN [2]: 0.18 mg/dL
- TOTAL PROTEIN [2]: 6.1 G/DL
- URIC ACID [2]: 1.67 mg/dL
- ABSOLUTE BASOPHIL [3]: 0 CELLS/uL
- ABSOLUTE EOSINOPHIL [3]: 43.67 CELLS/uL
- ABSOLUTE LYMPHOCYTE [3]: 14019 CELLS/uL
- ABSOLUTE MONOCYTE [3]: 367 CELLS/uL
- ABSOLUTE SEGMENTED NEUTROPHIL [3]: 1137 CELLS/uL
- BASOPHIL [3]: 0%
- EOSINOPHIL [3]: 0.33%
- ERYTHROCYTE COUNT [3]: 5.52 x10E6/uL
- HEMATOCRIT [3]: 36.5%
- HEMOGLOBIN [3]: 14.27 G/DL
- LEUKOCYTE COUNT [3]: 15.57 x10E3/uL
- LYMPHOCYTE [3]: 89.67%
- MEAN CORPUSCULAR HEMOGLOBIN [3]: 25.87 pg
- MEAN CORPUSCULAR HEMOGLOBIN CONCENTRATION [3]: 39.17 G/DL
- MEAN CORPUSCULAR VOLUME [3]: 66.13 fL
- MONOCYTE [3]: 2.33%
- NEUTROPHIL [3]: 7.67%
- NUCLEATED RED BLOOD CELLS [3]: 0.67 /100WBC
- PLATELET COUNT [3]: 1268.67 x10E3/uL
- ALANINE AMINOTRANSFERASE [3]: 66 u/L
- ALBUMIN [3]: 4.57 G/DL
- ALKALINE PHOSPHATASE [3]: 374.67 u/L
- ASPARTATE AMINOTRANSFERASE [3]: 95 u/L
- BLOOD UREA NITROGEN [3]: 16.67 mg/dL
- CARBON DIOXIDE [3]: 29.67 mmol/L
- CHLORIDE [3]: 99.67 MEQ/L
- CHOLESTEROL [3]: 67 mg/dL
- CREATINE PHOSPHOKINASE [3]: 308 u/L
- CREATININE [3]: 0.25 mg/dL
- GLUCOSE [3]: 141.33 mg/dL
- LACTATE DEHYDROGENASE [3]: 432 u/L
- LIPASE [3]: 8.67 u/L
- PHOSPHORUS [3]: 11.9 mg/dL
- POTASSIUM [3]: 6.67 MEQ/L
- SODIUM [3]: 145.33 MEQ/L
- TOTAL BILIRUBIN [3]: 0.33 mg/dL
- TOTAL PROTEIN [3]: 6.13 G/DL
- URIC ACID [3]: 2.03 mg/dL
